{"source": "patent EP4603105A1", "about": "“PHARMACEUTICAL COMPOSITION CONTAINING CYCLIC COMPOUND HAVING SELECTIVE KRAS INHIBITORY EFFECT AGAINST HRAS AND NRAS” (CHUGAI SEIYAKU KABUSHIKI KAISHA, priority 2022, dated 2024)", "key": {"[1]": {"system": "human lung cancer strain NCI-H441", "assay_type": "cell-based", "procedure,_shortened": "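Step one: dispense the test compound in serial DMSO dilutions. Step three: add the reagent and measure […].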"}, "HRAS wild-type protein": {"target": "HRAS wild-type protein (Homo sapiens, UniProt P01112)", "sequence (P01112 whole entry)": "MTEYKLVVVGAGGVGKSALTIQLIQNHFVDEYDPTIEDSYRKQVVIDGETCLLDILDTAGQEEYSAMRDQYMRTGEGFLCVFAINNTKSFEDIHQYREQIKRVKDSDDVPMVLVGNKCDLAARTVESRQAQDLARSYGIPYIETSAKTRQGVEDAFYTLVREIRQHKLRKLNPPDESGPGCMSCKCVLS", "experiment": "Binding to HRAS by surface plasmon resonance (SPR), KD and KD ratio to KRAS", "conditions": "ratio of KD for HRAS wild-type protein to KD for KRAS", "procedure,_shortened": "(§1)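 Biotinylated GDP-bound RAS was captured at about 100–300 RU. Running buffer: HBS pH 7.4, 10 mM MgCl2, 10 µM GDP, 1 mM DTT, 0.01% Tween 20, 4% DMSO.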"}, "[2]": {"target": "GDP-bound NRAS wild-type protein (Homo sapiens, UniProt P01111)", "sequence (P01111 whole entry)": "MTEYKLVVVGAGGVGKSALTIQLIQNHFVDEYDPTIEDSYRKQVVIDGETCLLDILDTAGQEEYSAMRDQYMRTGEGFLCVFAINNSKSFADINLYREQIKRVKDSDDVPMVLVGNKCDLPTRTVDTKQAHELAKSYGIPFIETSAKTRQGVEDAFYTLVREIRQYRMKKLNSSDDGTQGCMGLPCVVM", "experiment": "Binding to NRAS by surface plasmon resonance (SPR), KD and KD ratio to KRAS", "conditions": "ratio of KD for GDP-bound NRAS wild-type protein to KD for KRAS", "procedure,_shortened": "as §1"}}, "note": "Where a SMILES comes first, the peptide text is derived from it. Bridges are numbered along the chain shown (N, C = ends). [ ]: non-standard residue; d: D form. hPhe(3,5-F2-4-CF3) = N[C@@H](CCc1cc(F)c(C(F)(F)F)c(F)c1)C(=O)O; NPrPhe(4-CF3) = CCCN[C@@H](Cc1ccc(C(F)(F)F)cc1)C(=O)O; NMeGly(cPent) = CN[C@H](C(=O)O)C1CCCC1; NMeD = CN[C@@H](CC(=O)O)C(=O)O; NMeL = CN[C@@H](CC(C)C)C(=O)O; Iva = CC[C@](C)(N)C(=O)O; Sar = CNCC(=O)O"}
{"smiles": "CCCN1C(=O)CN(C)C(=O)CN(C)C(=O)[C@H]([C@@H](C)CC)NC(=O)[C@H](CC(C)C)N(C)C(=O)C[C@@H](C(=O)N(C)C)N(C)C(=O)[C@H](C2CCCC2)N(C)C(=O)[C@](C)(CC)NC(=O)[C@@H]2CCCN2C(=O)[C@H](CCc2cc(F)c(C(F)(F)F)c(F)c2)NC(=O)CN(C)C(=O)[C@@H]1Cc1ccc(C(F)(F)F)cc1", "note": "[PP0805] ([NMeL]I[Sar][Sar][NPrPhe(4-CF3)][Sar][hPhe(3,5-F2-4-CF3)]P[Iva][NMeGly(cPent)][NMeD]-NMe2; lactam N-11)", "values": [{"measurement": "IC50", "setting": "[1]", "value": 10.3, "unit": "nM"}, {"measurement": "HRAS /KRAS", "setting": "HRAS wild-type protein", "value": "C (A compound having a KD ratio of 0.1 or more and less than 3 is denoted as C)"}, {"measurement": "NRAS /KRAS", "setting": "[2]", "value": "B (a compound having 3 or more and less than 10 is denoted as B)"}]}
{"smiles": "CCO[C@@H]1C[C@H]2C(=O)NC3(CCC3)C(=O)N(C)[C@@H](C3CCCC3)C(=O)N(C)[C@H](C(=O)N3CCOCC3)CC(=O)N(C)[C@@H](CC(C)C)C(=O)N[C@@H](C3CC(F)(F)C3)C(=O)N(C)CC(=O)N(C)[C@H]3CCCCN(C3=O)[C@@H](Cc3ccc(C(F)(F)F)cc3)C(=O)N(C)CC(=O)N[C@@H](CCc3cc(F)c(C(F)(F)F)c(F)c3)C(=O)N2C1", "note": "[PP0807]", "values": [{"measurement": "IC50", "setting": "[1]", "value": 16.7, "unit": "nM"}, {"measurement": "HRAS /KRAS", "setting": "HRAS wild-type protein", "value": "B (a compound having 3 or more and less than 10 is denoted as B)"}, {"measurement": "NRAS /KRAS", "setting": "[2]", "value": "B (a compound having 3 or more and less than 10 is denoted as B)"}]}
{"smiles": "CC[C@H](C)[C@@H]1NC(=O)[C@H](CC(C)C)N(C)C(=O)C[C@@H](C(=O)N2CCOCC2)N(C)C(=O)[C@H](C2CCCC2)N(C)C(=O)C2(CCC2)NC(=O)[C@]2(C)CCCN2C(=O)[C@H](CCc2cc(F)c(C(F)(F)F)c(F)c2)NC(=O)CN(C)C(=O)[C@H](Cc2ccc(C(F)(F)F)cc2)N2CCCC[C@@H](C2=O)N(C)C(=O)CN(C)C1=O", "note": "[PP0808]", "values": [{"measurement": "IC50", "setting": "[1]", "value": 16.7, "unit": "nM"}, {"measurement": "HRAS /KRAS", "setting": "HRAS wild-type protein", "value": "B (a compound having 3 or more and less than 10 is denoted as B)"}, {"measurement": "NRAS /KRAS", "setting": "[2]", "value": "B (a compound having 3 or more and less than 10 is denoted as B)"}]}
{"smiles": "CC[C@H](C)[C@@H]1NC(=O)[C@H](CC(C)C)N(C)C(=O)C[C@@H](C(=O)N2CCOCC2)N(C)C(=O)[C@H](C2CCCC2)N(C)C(=O)C2(CCC2)NC(=O)[C@@H]2C[C@@H](C(F)(F)F)CN2C(=O)[C@H](CCc2cc(F)c(C(F)(F)F)c(F)c2)NC(=O)CN(C)C(=O)[C@H](Cc2ccc(C(F)(F)F)cc2)N2CCCC[C@@H](C2=O)N(C)C(=O)CN(C)C1=O", "note": "[PP0809]", "values": [{"measurement": "IC50", "setting": "[1]", "value": 8.4, "unit": "nM"}, {"measurement": "HRAS /KRAS", "setting": "HRAS wild-type protein", "value": "B (a compound having 3 or more and less than 10 is denoted as B)"}, {"measurement": "NRAS /KRAS", "setting": "[2]", "value": "B (a compound having 3 or more and less than 10 is denoted as B)"}]}
{"smiles": "CC[C@H](C)[C@@H]1NC(=O)[C@H](CC(C)C)N(C)C(=O)C[C@@H](C(=O)N2CCOCC2)N(C)C(=O)[C@H](C2CCCC2)N(C)C(=O)C2(CCC2)NC(=O)[C@@H]2[C@H]3C[C@H]3CN2C(=O)[C@H](CCc2cc(F)c(C(F)(F)F)c(F)c2)NC(=O)CN(C)C(=O)[C@H](Cc2ccc(C(F)(F)F)cc2)N2CCCC[C@@H](C2=O)N(C)C(=O)CN(C)C1=O", "note": "[PP0810]", "values": [{"measurement": "IC50", "setting": "[1]", "value": 12.8, "unit": "nM"}, {"measurement": "HRAS /KRAS", "setting": "HRAS wild-type protein", "value": "B (a compound having 3 or more and less than 10 is denoted as B)"}, {"measurement": "NRAS /KRAS", "setting": "[2]", "value": "B (a compound having 3 or more and less than 10 is denoted as B)"}]}
{"smiles": "CCO[C@@H]1C[C@H]2C(=O)NC3(CCC3)C(=O)N(C)[C@@H](C(CC)CC)C(=O)N(C)[C@H](C(=O)N3CCOCC3)CC(=O)N(C)[C@@H](CC(C)C)C(=O)N[C@@H]([C@@H](C)CC)C(=O)N(C)CC(=O)N(C)[C@H]3CCCCN(C3=O)[C@@H](Cc3ccc(C(F)(F)F)cc3)C(=O)N(C)CC(=O)N[C@@H](CCc3cc(F)c(C(F)(F)F)c(F)c3)C(=O)N2C1", "note": "[PP0811]", "values": [{"measurement": "IC50", "setting": "[1]", "value": 9.8, "unit": "nM"}, {"measurement": "HRAS /KRAS", "setting": "HRAS wild-type protein", "value": "B (a compound having 3 or more and less than 10 is denoted as B)"}, {"measurement": "NRAS /KRAS", "setting": "[2]", "value": "B (a compound having 3 or more and less than 10 is denoted as B)"}]}
{"smiles": "CCOC1CC2C(=O)NC3(CCC3)C(=O)N(C)C(C(C)CC)C(=O)N(C)[C@H](C(=O)N3CCOCC3)CC(=O)N(C)[C@@H](CC(C)C)C(=O)N[C@@H]([C@@H](C)CC)C(=O)N(C)CC(=O)N(C)[C@H]3CCCCN(C3=O)[C@@H](Cc3ccc(C(F)(F)F)cc3)C(=O)N(C)CC(=O)N[C@@H](CCc3cc(F)c(C(F)(F)F)c(F)c3)C(=O)N2C1", "note": "(stereo partly drawn) [PP0812]", "values": [{"measurement": "IC50", "setting": "[1]", "value": 17.9, "unit": "nM"}, {"measurement": "HRAS /KRAS", "setting": "HRAS wild-type protein", "value": "B (a compound having 3 or more and less than 10 is denoted as B)"}, {"measurement": "NRAS /KRAS", "setting": "[2]", "value": "B (a compound having 3 or more and less than 10 is denoted as B)"}]}
{"smiles": "CCO[C@@H]1C[C@H]2C(=O)NC3(CCC3)C(=O)N(C)[C@@H](CC(F)F)C(=O)N(C)[C@H](C(=O)N3CCOCC3)CC(=O)N(C)[C@@H](CC(C)C)C(=O)N[C@@H]([C@@H](C)CC)C(=O)N(C)CC(=O)N(C)[C@H]3CCCCN(C3=O)[C@@H](Cc3ccc(C(F)(F)F)cc3)C(=O)N(C)CC(=O)N[C@@H](CCc3cc(F)c(C(F)(F)F)c(F)c3)C(=O)N2C1", "note": "[PP0813]", "values": [{"measurement": "IC50", "setting": "[1]", "value": 90.3, "unit": "nM"}, {"measurement": "HRAS /KRAS", "setting": "HRAS wild-type protein", "value": "B (a compound having 3 or more and less than 10 is denoted as B)"}, {"measurement": "NRAS /KRAS", "setting": "[2]", "value": "C (A compound having a KD ratio of 0.1 or more and less than 3 is denoted as C)"}]}
{"smiles": "CCO[C@@H]1C[C@H]2C(=O)NC3(CCC3)C(=O)N(C)[C@@H](C(C)(C)C)C(=O)N(C)[C@H](C(=O)N3CCOCC3)CC(=O)N(C)[C@@H](CC(C)C)C(=O)N[C@@H]([C@@H](C)CC)C(=O)N(C)CC(=O)N(C)[C@H]3CCCCN(C3=O)[C@@H](Cc3ccc(C(F)(F)F)cc3)C(=O)N(C)CC(=O)N[C@@H](CCc3cc(F)c(C(F)(F)F)c(F)c3)C(=O)N2C1", "note": "[PP0814]", "values": [{"measurement": "IC50", "setting": "[1]", "value": 19.4, "unit": "nM"}, {"measurement": "HRAS /KRAS", "setting": "HRAS wild-type protein", "value": "B (a compound having 3 or more and less than 10 is denoted as B)"}, {"measurement": "NRAS /KRAS", "setting": "[2]", "value": "B (a compound having 3 or more and less than 10 is denoted as B)"}]}
{"smiles": "CC[C@H](C)[C@@H]1NC(=O)[C@H](CC(C)C)N(C)C(=O)C[C@@H](C(=O)N2CCOCC2)N(C)C(=O)[C@H](C2CCCC2)N(C)C(=O)C2(CCC2)NC(=O)[C@@H]2C[C@@H](C(F)(F)F)CN2C(=O)[C@H](CCc2cc(F)c(C(F)(F)F)c(F)c2)NC(=O)CN(C)C(=O)[C@H](Cc2ccc(C(F)(F)F)cc2)N2CCCCC[C@@H](C2=O)N(C)C(=O)CN(C)C1=O", "note": "[PP0818]", "values": [{"measurement": "IC50", "setting": "[1]", "value": 43.7, "unit": "nM"}, {"measurement": "HRAS /KRAS", "setting": "HRAS wild-type protein", "value": "B (a compound having 3 or more and less than 10 is denoted as B)"}, {"measurement": "NRAS /KRAS", "setting": "[2]", "value": "B (a compound having 3 or more and less than 10 is denoted as B)"}]}
{"smiles": "CCO[C@@H]1C[C@H]2C(=O)NC3(CCC3)C(=O)N(C)[C@@H](CC(F)F)C(=O)N(C)[C@H](C(=O)N3CCOCC3)CC(=O)N(C)[C@@H](CC(C)C)C(=O)N[C@@H]([C@@H](C)CC)C(=O)N(C)CC(=O)N(C)[C@H]3CCCCCN(C3=O)[C@@H](Cc3ccc(C(F)(F)F)cc3)C(=O)N(C)CC(=O)N[C@@H](CCc3cc(F)c(C(F)(F)F)c(F)c3)C(=O)N2C1", "note": "[PP0822]", "values": [{"measurement": "IC50", "setting": "[1]", "value": 1990, "unit": "nM"}, {"measurement": "HRAS /KRAS", "setting": "HRAS wild-type protein", "value": "B (a compound having 3 or more and less than 10 is denoted as B)"}, {"measurement": "NRAS /KRAS", "setting": "[2]", "value": "B (a compound having 3 or more and less than 10 is denoted as B)"}]}
